# Test results: ChEMBL document CHEMBL5357052, “Diastereomers of Steroidal Alkaloids with Cytotoxic Activities against Non-Small-Cell Lung Cancer from the Bulbs of Fritillaria sinica” (2024)
# How the values were obtained:
# Type in all cases: functional
# H9c2 = test: Antioxidant activity against H2O2 treated rat H9c2 cells assessed as inhibition of MDA level at 10 uM incubated for 4 hrs followed by H2O2 administration by colorimetric assay relative to control; design: scale not given: the % may be the effect or the level left
# A549 = test: Cytotoxicity against human A549 cells assessed as reduction in cell growth incubated for 48 hrs by CCK8 method
# NCI-H460 = test: Cytotoxicity against human NCI-H460 cells assessed as reduction in cell growth incubated for 48 hrs by CCK8 method
# RAW264.7 = test: Antiinflammatory activity in mouse RAW264.7 cells assessed as inhibition of LPS induced NO production at 10 uM preincubated for 24 hrs followed by LPS stimulation and measured after 24 hrs by Griess assay relative to control; design: scale not given: the % may be the effect or the level left; conditions: time 48 hrs
SMILES,Activity (H9c2) [%],CC50 (A549) [µM],CC50 (NCI-H460) [µM],Activity (RAW264.7) [%]
C[C@H]1CC[C@H]2[C@H](C)[C@H]3CC[C@@H]4[C@@H](C[C@H]5[C@H]4C[C@H](O)[C@H]4C[C@@H](O)CC[C@@]45C)[C@@H]3CN2C1,29,11,20,57
C[C@@H]1CC[C@H]2[C@H](C)[C@H]3CC[C@@H]4[C@@H](C[C@H]5[C@H]4CC(=O)[C@H]4C[C@@H](O)CC[C@@]45C)[C@@H]3CN2C1,20,29,49,-1.3
C[C@@H]1CC[C@H]2[C@@H](C)[C@H]3CC[C@@H]4[C@@H](C[C@H]5[C@H]4CC(=O)[C@H]4C[C@@H](O[C@@H]6O[C@H](CO)[C@@H](O)[C@H](O)[C@H]6O)CC[C@@]45C)[C@@H]3CN2C1,24,39,54,6.1
C[C@@H]1CC[C@H]2[C@H](C)[C@H]3CC[C@@H]4[C@@H](C[C@H]5[C@H]4CC(=O)[C@H]4C[C@@H](O)CC[C@@]45C)[C@H]3C[N+]2([O-])C1 (stereo not given in full),39,9.5,11,1.4
C[C@H]1CC[C@H]2[C@H](C)[C@@H]3CC[C@@H]4[C@@H](C[C@H]5[C@H]4CC(=O)[C@H]4C[C@@H](O)CC[C@@]45C)[C@@H]3CN2C1,39,30,46,23
C[C@@H]1CC[C@H]2[C@H](C)c3ccc4c(c3CN2C1)C[C@H]1[C@H]4C[C@H](O)[C@H]2C[C@@H](O)CC[C@@]21C,58,52,65,45
C[C@@H]1CC[C@H]2[C@H](C)[C@H]3CC[C@@H]4[C@@H](C[C@H]5[C@H]4CC(=O)[C@H]4C[C@@H](O)CC[C@@]45C)[C@H]3CN2C1,24,43,54,44
C[C@@H]1CC[C@H]2[C@H](C)[C@H]3CC[C@@H]4[C@@H](C[C@H]5[C@H]4C[C@H](O)[C@H]4C[C@@H](O)CC[C@@]45C)[C@@H]3C[N+]2([O-])C1 (stereo not given in full),48,35,45,24
CC1=C2C[C@H]3[C@@H](CC(=O)[C@H]4C[C@H](O)CC[C@@]43C)[C@@H]2CC[C@]12O[C@@H]1C[C@H](C)CN[C@H]1[C@H]2C,53,15,29,73
CC1=C2C[C@H]3[C@@H](CC(=O)[C@H]4C[C@@H](O)CC[C@@]43C)[C@@H]2CC[C@]12O[C@@H]1C[C@H](C)CN[C@H]1[C@H]2C,72,9.6,17,66
C[C@H]1CC[C@H]2[C@H](C)[C@H]3CC[C@@H]4[C@@H](C[C@H]5[C@H]4C[C@@H](O)[C@H]4C[C@@H](O)CC[C@@]45C)[C@@H]3CN2C1,38,19,10,8.3
C[C@H]1CC[C@@H]2[C@H](C)[C@@H]3CC[C@@H]4[C@@H](C[C@H]5[C@H]4CC(=O)[C@H]4C[C@@H](O)CC[C@@]45C)[C@@H]3CN2C1,5.4,6.8,25,62
C[C@@H]1CC[C@H]2[C@H](C)[C@H]3CC[C@@H]4[C@@H](C[C@H]5[C@H]4CC(=O)[C@H]4C[C@@H](O)CC[C@@]45C)[C@@H]3C[N+]2([O-])C1 (stereo not given in full),29,21,37,0.9
C[C@H]1CC[C@H]2[C@H](C)[C@H]3CC[C@@H]4[C@@H](C[C@H]5[C@H]4CC(=O)[C@H]4C[C@@H](O)CC[C@@]45C)[C@@H]3CN2C1,34,22,37,42
C[C@H]1CC[C@@H]2[C@H](C)[C@@H]3CC[C@@H]4[C@@H](C[C@H]5[C@H]4C[C@@H](O)[C@H]4C[C@@H](O)CC[C@@]45C)[C@@H]3CN2C1,33,10,12,27
C[C@@H]1CC[C@H]2[C@H](C)[C@H]3CC[C@@H]4[C@@H](C[C@H]5[C@H]4C[C@H](O)[C@H]4C[C@@H](O)CC[C@@]45C)[C@@H]3CN2C1,15,23,40,7.9
C[C@@H]1CC[C@H]2[C@H](C)[C@@H]3CC[C@@H]4[C@@H](C[C@H]5[C@H]4CC(=O)[C@H]4C[C@@H](O)CC[C@@]45C)[C@@H]3CN2C1,21,31,37,47
C[C@@H]1CC[C@H]2[C@H](C)[C@H]3CC[C@@H]4[C@@H](C[C@H]5[C@H]4C[C@H](O)[C@H]4C[C@@H](O)CC[C@@]45C)[C@H]3C[N+]2([O-])C1 (stereo not given in full),15,38,45,40
C[C@H]1CC[C@H]2[C@H](C)c3ccc4c(c3CN2C1)C[C@H]1[C@H]4C[C@H](O)[C@H]2C[C@@H](O)CC[C@@]21C,43,34,65,2.1
C[C@@H]1CC[C@H]2[C@H](C)[C@H]3CC[C@@H]4[C@@H](C[C@H]5[C@H]4CC(=O)[C@H]4C[C@@H](O[C@@H]6O[C@H](CO)[C@@H](O)[C@H](O)[C@H]6O)CC[C@@]45C)[C@H]3CN2C1,53,19,59,7.8
